# Experimental data from patent US11260072B2, “MicroRNA-based methods and assays for osteocarcinoma” (3-D Matrix, Ltd., priority 2011, dated 2022).
# d = 2'-deoxy (DNA); r = 2'-OH (RNA)
# Legend:
# [1] = system: miR-10b; assay: knock-down of miR-10b in LNA-transfected CD133high SaOS2 cells; assay type: cell-based, human
# Text: (§1) RNA isolation and quantitative real-time RT-PCR of mRNAs and miRNAs. Total RNA was purified from cells and tumor tissues with an RNeasy Mini Kit and RNase-Free DNase Set (QIAGEN). For quantitative polymerase chain reaction (qPCR) of mRNAs, cDNA was synthesized using High-Capacity cDNA Reverse Transcription Kit (Applied Biosystems). For each qPCR reaction, equal amounts of cDNA were mixed with Platinum SYBER Green qPCR SuperMix (Invitrogen) and specific primers (Table 1). Gene expression levels were normalized by beta actin (ACTB) or glyceraldehyde 3-phosphate dehydrogenase (GAPDH). For qPCR of miRNAs, miRNA was converted to cDNA using the TaqMan MicroRNA Reverse Transcription Kit (Applied Biosystems). RNU6B small nuclear RNA was amplified as an internal control. qPCR was performed using each miRNA-specific probe included with the TaqMan MicroRNA Assay on a Real-Time PCR System 7300 and SDS software (Applied Biosystems).
# (§2) Transfection with synthetic miRNAs, LNAs, and siRNAs. […]
# [2] = system: CD133^low SaOS2 cells; assay: siRNA knockdown, invasion assay; assay type: cell-based, human; conditions: siRNA 100 nM, 72 h after transfection
# Experimental: Invasion assay. Invasion assays were performed by using 24-well BD BioCoat Invasion Chambers with Matrigel (Becton-Dickinson). 1×10^5 cells, suspended in 500 μL DMEM or RPMI 1640 medium without FBS, were added to the upper chamber, and DMEM or RPMI 1640 medium with 10% FBS was added to the lower chamber. After incubation for 24 h or 36 h, the cells on the upper surface of the filter were completely removed by wiping them with cotton swabs. The filters were fixed in methanol and stained with 1% toluidine blue in 1% sodium tetraborate (Sysmex). Filters were then mounted onto slides, and cells on lower surfaces were counted. Each assay was performed in triplicate.
# (§3) Transfection with synthetic miRNAs, LNAs, and siRNAs. Synthetic hsa-miRs (Pre-miR-hsa-miR-1, -10b, -133a, and negative control (NC; Applied Biosystems, Table 2) and locked nucleic acids (LNAs) (LNA-1, -10b, -133a, and negative control, Exiqon, Table 3) were transfected into each type of cells at 30 nM each (final concentration) using DharmaFECT 1(GE Healthcare). Synthetic siRNAs (Bonac corporation, Table 4) were transfected into each type of cells at 100 nM each (final concentration) using DharmaFECT 1 (GE Healthcare). After 24 hours of incubation, cells were treated with chemotherapeutic agents for cytotoxicity assay or reseeded into invasion chambers for invasion assay.
# (§4) Next, the expression of these molecules was reduced using siRNA-induced gene knockdown system to investigate whether these candidates are functionally important targets of miR-133a in osteosarcoma cells.
# [3] = system: CD133^low SaOS2 cells; assay: siRNA knockdown, cell growth in the presence of cisplatin; assay type: cell-based, human; conditions: siRNA 100 nM, 72 h after transfection
# Experimental: as §3, §4
# [4] = system: miR-1; assay: knock-down of miR-1 in LNA-transfected CD133high SaOS2 cells; assay type: cell-based, human
# Text: as §1, §2
# [5] = system: 143B cells; assay: qRT-PCR of miRNAs and CD133 mRNA in drug-treated 143B cells; assay type: cell-based, human; conditions: for CD133 mRNA expression: 143B cells; for expression of miR-1, miR-10b, and miR-133a: 3 days treatment, relative to untreated 143B cells
# Text: as §1
# In addition, the expression of miR-133a was enhanced by cisplatin in CD133^low HOS cells. […] CDDP-treated CD133^low HOS cells could form tumors with as few as 100 cells per injection, whereas the untreated CD133^low HOS cells could not (FIG. 23 and Table 9). […] Therefore, we reasoned that silencing of miR-133a before or during chemotherapy would prevent the increase of the expression of miR-133a, which enhanced TIC phenotypes and was induced by chemotherapeutics.
# [6] = system: CD133^low HOS-luc cells; assay: tumorigenicity of CDDP-treated CD133low HOS-luc cells in mice; assay type: in vivo
# Experimental: Tumor transplantation experiments. Animal experiments were performed in compliance with the guidelines of the Institute for Laboratory Animal Research, National Cancer Center Research Institute. Athymic nude mice or NOD/SCID mice (CLEA Japan) were purchased at 4 weeks of age and given at least 1 week to adapt to their new environment prior to tumor transplantation. On day 0, mice were anesthetized with 3% isoflurane and the right leg disinfected with 70% ethanol. Cells were aspirated into a 1 mL tuberculin syringe fitted with a 27-G needle. The needle was inserted through the cortex of the anterior tuberosity of the tibia with a rotating movement to avoid cortical fracture. Once the bone was traversed, the needle was inserted further to fracture the posterior cortex of the tibia. […]
# Monitoring tumor growth, lung metastasis, and toxicity with/without LAN-anti-miR-133a. […] Ten minutes later, photons from firefly luciferase were counted using the IVIS imaging system (Xenogen Corp.) according to the manufacturer's instructions. […] The development of subsequent lung metastasis was monitored once a week in vivo by the bioluminescent imaging described above for 5 weeks. All data were analyzed using LivingImage software (version 2.50, Xenogen). […]
# [7] = system: CD133^low HOS cells; assay: miR-133a expression in cisplatin-treated CD133low HOS cells; assay type: cell-based, human
# Text: as §1
# [8] = system: 143B-luc; assay: spontaneous lung metastasis model of osteosarcoma (143B-luc implanted orthotopically into tibia); assay type: in vivo, athymic nude mice
# Experimental: Tumor transplantation experiments. Animal experiments were performed in compliance with the guidelines of the Institute for Laboratory Animal Research, National Cancer Center Research Institute. Athymic nude mice or NOD/SCID mice (CLEA Japan) were purchased at 4 weeks of age and given at least 1 week to adapt to their new environment prior to tumor transplantation. On day 0, mice were anesthetized with 3% isoflurane and the right leg disinfected with 70% ethanol. Cells were aspirated into a 1 mL tuberculin syringe fitted with a 27-G needle. The needle was inserted through the cortex of the anterior tuberosity of the tibia with a rotating movement to avoid cortical fracture. Once the bone was traversed, the needle was inserted further to fracture the posterior cortex of the tibia. A 100 μL volume of solution containing freshly isolated CD133^high and CD133^low HOS-Luc (10^2, 10^3, 10^4, 10^5 cells per site) or 143B-Luc (1.5×10^6) was injected while slowly moving back the needle.
# Monitoring tumor growth, lung metastasis, and toxicity with/without LAN-anti-miR-133a. For the assessment of tumorigenicity between CD133^high and CD133^low HOS-Luc cells, NOD/SCID mice were injected with D-luciferin (150 mg/kg, Promega) by intraperitoneal injection. Ten minutes later, photons from firefly luciferase were counted using the IVIS imaging system (Xenogen Corp.) according to the manufacturer's instructions. Each experimental condition included 5 animals per group and monitoring once a week. For the evaluation of LNA-anti-miR-133a administration into spontaneous lung metastasis of osteosarcoma model mice, individual mice were injected with 10 mg/kg of LNA-anti-miR-133a or saline via the tail vain. LNA were injected on following days 4, 11, 18, 25, 32 postinoculation of 143B-Luc cells. Each experimental condition included 10 animals per group. The development of subsequent lung metastasis was monitored once a week in vivo by the bioluminescent imaging described above for 5 weeks. All data were analyzed using LivingImage software (version 2.50, Xenogen). On day 36, the primary tumor and lung in 5 mice of each group were resected at necropsy for their weight, bioluminescent, and histological analyses. The blood examination, weight of whole body as well as heart, liver, and skeletal muscle, and histopathological examination were performed for the assessment of toxicity.
# To extend the in vitro findings and to determine whether silencing of miR-133a could be an effective therapeutic option for osteosarcoma treatment, the effect of LNA-133a on a spontaneous lung metastasis model of osteosarcoma was examined. Experimentally, 1.5×10^6 cells of 143B transfected with firefly luciferase gene (143B-luc) were implanted orthotopically into the right proximal tibia of athymic nude mice. The implanted tumor growth and the presence of distant metastases were analyzed weekly for luciferase bioluminescence using an in vivo imaging system (IVIS). […] To assess the efficacy of the new treatment protocol, results were compared with three control groups (n=10 each): a saline control group, an LNA group, and a CDDP group. At 5 weeks, half the mice in each group were euthanized for further analysis; the remaining mice were monitored for survival.
compound,measurement,setting,value
"LNA-10b: locked nucleic acid antisense to hsa-miR-10b, 5′-ACAAATTCGGTTCTACAGGGT-3′ (Exiqon) (LNA-modified (Exiqon), pattern not given here)",miR-10b expression,[1],knock-down
"UBA2: synthetic siRNA against UBA2 (Bonac corporation), Table 4 (sense GGACUGGGCUGAAGUACAATT; antisense UUGUACUUCAGCCCAGUCCTT; sugars from the 5' end r19 d2, backbone not given here)",invasiveness after knockdown,[2],enhanced invasiveness
"MAST4: synthetic siRNA against MAST4 (Bonac corporation), Table 4 (sense GGAGGUACCUUCUUCCAAATT; antisense UAUCAAACUUCCUCUUCUGTT; sugars from the 5' end r19 d2, backbone not given here)",drug resistance after knockdown,[3],enhanced drug resistance
"LNA-1: locked nucleic acid antisense to hsa-miR-1-2, 5′-ACATACTTCTTTACATTCCA-3′ (Exiqon) (LNA-modified (Exiqon), pattern not given here)",miR-1 expression,[4],knock-down
"ANXA2: synthetic siRNA against ANXA2 (Bonac corporation), Table 4 (sense UGACCAAGAUGCUCGGGAUTT; antisense AUCCCGAGCAUCUUGGUCATT; sugars from the 5' end r19 d2, backbone not given here)",drug resistance after knockdown,[3],enhanced drug resistance
same,invasiveness after knockdown,[2],enhanced invasiveness
"SGMS2: synthetic siRNA against SGMS2 (Bonac corporation), Table 4 (sense CCACUAGAGUGGUGGAAAATT; antisense UUUUCCACCACUCUAGUGGTT; sugars from the 5' end r19 d2, backbone not given here)",invasiveness after knockdown,[2],enhanced invasiveness
"DUSP11: synthetic siRNA against DUSP11 (Bonac corporation), Table 4 (sense CCAGAGGAUUUGCCAGAAATT; antisense UGUGUCUCGGAUUAGGAAGTT; sugars from the 5' end r19 d2, backbone not given here)",drug resistance after knockdown,[3],enhanced drug resistance
same,invasiveness after knockdown,[2],enhanced invasiveness
"ROD1: synthetic siRNA against ROD1 (Bonac corporation), Table 4 (sense GGGAAUGACAGCAAGAAAUTT; antisense AUUUCUUGCUGUCAUUCCCTT; sugars from the 5' end r19 d2, backbone not given here)",drug resistance after knockdown,[3],enhanced drug resistance
"COc1cccc2c1C(=O)c1c(O)c3c(c(O)c1C2=O)C[C@@](O)(C(=O)CO)C[C@@H]3O[C@H]1C[C@H](N)[C@H](O)[C@H](C)O1 [DOX, doxorubicin]",CD133 mRNA expression,[5],induction
same,"expression of miR-1, miR-10b, and miR-133a",[5],increased level
"N.N.[Cl][Pt][Cl] [CDDP, cis-diamtninedichloroplatinum (II)]",CD133 mRNA expression,[5],induction
same,CD133 mRNA expression,[5]; listed as cisplatin,induced
same,"expression of miR-1, miR-10b, and miR-133a",[5],increased level
same,Tumor Incidence,"[6]; 100 cells per injection, cells treated with CDDP",5/5
same,in vivo tumorigenicity of CD133low HOS population,"[6]; mouse, in vivo",increased in vivo tumorigenicity
same,expression of miR-133a,[7],enhanced
same,Luminescence of lung (mean),[8]; IVIS bioluminescence,2855
same,tumor growth,"[8]; compared to the other groups, LNA-133a 10 mg kg-1 i.v., CDDP 2 mg kg-1 i.p.",No significant differences in tumor growth
same,Lung metastasis (mice with metastasis / mice in group),[8]; day 35,8/10
same,Tumor weight (mean),"[8]; day 36, LNA-133a 10 mg kg-1 i.v., CDDP i.p.",3.957 g
"SNX30: synthetic siRNA against SNX30 (Bonac corporation), Table 4 (sense CCGAGAAGUUUGUGGUAAATT; antisense UUUACCACAAACUUCUCGGTT; sugars from the 5' end r19 d2, backbone not given here)",invasiveness after knockdown,[2],enhanced invasiveness
